Experimental data reported in the Deep4Chem optical property database.
Blank lines part the entries; values can stand above or below the compound they belong to.

Assay: photoluminescence quantum yield (fraction); solvent given as SMILES

Structure (SMILES): O=C1c2cccc3c(-n4c5ccccc5c5ccccc54)ccc(c23)C(=O)N1c1ccccc1
photoluminescence quantum yield (in C1CCOC1): 0.032 | photoluminescence quantum yield (in CCCCCC): 0.887 | photoluminescence quantum yield (in ClC(Cl)Cl): 0.198 | photoluminescence quantum yield (in ClCCl): 0.032

Structure (SMILES): COC(=O)/C=C/C1=CC2=C(c3c(C)cc(C)cc3C)c3cccn3[B-](F)(F)[N+]2=C1
photoluminescence quantum yield (in ClCCl): 0.34

Structure (SMILES): Cc1ccc(C)c2nc3c(=O)[nH]c(=O)[nH]c3nc12
photoluminescence quantum yield (in CC#N): 0.08

Structure (SMILES): CC1(C)c2ccccc2-n2c(-c3ccc(N4c5ccccc5Sc5ccccc54)cc3)nc3cccc1c32
photoluminescence quantum yield (in Cc1ccccc1): 0.08 | photoluminescence quantum yield (in O=P(c1ccccc1)(c1ccccc1)c1ccccc1Oc1ccccc1P(=O)(c1ccccc1)c1ccccc1): 0.05

Structure (SMILES): COc1ccc2c(c1)CCC1=C(C#Cc3ccccc3)O[B-](F)(F)[O+]=C12
photoluminescence quantum yield (in ClCCl): 0.8

Structure (SMILES): CCCC1(CCC)c2cc(C=C(C#Cc3ccccc3)C#Cc3ccccc3)ccc2-c2ccc(C=C(C#Cc3ccccc3)C#Cc3ccccc3)cc21
photoluminescence quantum yield (in ClC(Cl)Cl): 0.31

Structure (SMILES): COc1ccc2c(c1)c1ccccc1n2-c1nc2ccccc2nc1-n1c2ccccc2c2cc(OC)ccc21
photoluminescence quantum yield (in Cc1ccccc1): 0.13

Structure (SMILES): F[B-]1(F)OC(c2ccc3ccccc3c2)=CC(c2ccc3ccccc3c2)=[O+]1
photoluminescence quantum yield (in CC#N): 0.7 | photoluminescence quantum yield (in ClC(Cl)(Cl)Cl): 0.9

Structure (SMILES): CC1=[N+]2C(=C(c3ccc(C(=C(c4ccccc4)c4ccccc4)c4ccccc4)cc3)c3ccc(/C=C/c4ccc(C(=C(c5ccccc5)c5ccccc5)c5ccccc5)cc4)n3[B-]2(F)F)C=C1
photoluminescence quantum yield (in C1CCOC1): 0.619

Structure (SMILES): CN(C)c1ccc(C2=Nc3scc(-c4ccc(C#N)cc4)[n+]3[B-](F)(F)O2)cc1
photoluminescence quantum yield (in C1CCOC1): 0.23 | photoluminescence quantum yield (in CC#N): 0.02 | photoluminescence quantum yield (in Cc1ccccc1): 0.62 | photoluminescence quantum yield (in ClCCl): 0.61

Structure (SMILES): CC1(C)C(/C=C/C2=C(Cl)C(=C/C=C3/N(CCCS(=O)(=O)[O-])c4ccccc4C3(C)C)/CCC2)=[N+](CCCS(=O)(=O)[O-])c2ccccc21
photoluminescence quantum yield (in CO): 0.05

Structure (SMILES): COC(=O)C(NC(=O)OC(C)(C)C)c1ccc2oc(-c3cc(OC)c(OC)cc3OC)nc2c1 (configuration not stated)
photoluminescence quantum yield (in CC1CCCCC1): 0.58 | photoluminescence quantum yield (in CC#N): 0.79 | photoluminescence quantum yield (in CO): 0.81

Structure (SMILES): CC(C)(C)c1ccc(-c2c3cccc4c(-c5ccccc5)cc5c(-c6ccc(C(C)(C)C)cc6)c6cccc7c(-c8ccccc8)cc2c(c76)c5c43)cc1
photoluminescence quantum yield (in ClCCl): 0.26

Structure (SMILES): CC1=CC(/C=C/c2ccc([N+](C)(C)C)cc2)=[N+]2C1=C(c1ccc(I)cc1)c1c(C)cc(/C=C/c3ccc([N+](C)(C)C)cc3)n1[B-]2(F)F
photoluminescence quantum yield (in CC#N): 0.69

Structure (SMILES): Fc1c(-c2nnc(-c3ccccc3)o2)c(-n2c3ccccc3c3ccccc32)c(F)c(-n2c3ccccc3c3ccccc32)c1-n1c2ccccc2c2ccccc21
photoluminescence quantum yield (in Cc1ccccc1): 0.2

Structure (SMILES): CC(C)Oc1ccc(C#Cc2ccc3ccc(=O)oc3c2)cc1
photoluminescence quantum yield (in CC#N): 0.034

Structure (SMILES): Cc1ccc(C2=C3C=CC(c4ccccc4)=[N+]3[B-](F)(F)n3c2ccc3-c2ccccc2)cc1
photoluminescence quantum yield (in C1CCCCC1): 0.31 | photoluminescence quantum yield (in C1CCOC1): 0.22 | photoluminescence quantum yield (in C1COCCO1): 0.25 | photoluminescence quantum yield (in CCOC(C)=O): 0.2 | photoluminescence quantum yield (in CO): 0.21 | photoluminescence quantum yield (in Cc1ccccc1): 0.42 | photoluminescence quantum yield (in ClC(Cl)Cl): 0.31

Structure (SMILES): CCCN1C(=O)c2c3c(c4c(c2C1=O)CCc1cc(-c2ccc(N(C)C)cc2)c(OC)cc1-4)-c1cc(OC)c(-c2ccc(N(C)C)cc2)cc1CC3
photoluminescence quantum yield (in C1CCCCC1): 0.752 | photoluminescence quantum yield (in C1CCOC1): 0.069 | photoluminescence quantum yield (in CCOC(C)=O): 0.065 | photoluminescence quantum yield (in Cc1ccccc1): 0.726 | photoluminescence quantum yield (in ClCCl): 0.023

Structure (SMILES): COc1ccccc1-c1cc2c(o1)=CC1=Cc3cc4oc(-c5ccccc5OC)cc4n3[B-](F)(F)[N+]=21
photoluminescence quantum yield (in ClC(Cl)Cl): 0.91

Structure (SMILES): Oc1cc2ccc3cc(O)cc4ccc(c1)c2c34
photoluminescence quantum yield (in CO): 0.93

Structure (SMILES): Cc1ccc(N2C(c3ccccc3N(C)C)=NC(c3ccccc3)C2c2ccccc2)cc1 (configuration not stated)
photoluminescence quantum yield (in Cc1ccccc1): 0.275

Structure (SMILES): COc1ccc(C2=Nc3cccc4[n+]3[B-](F)(O2)OC(c2ccc(OC)cc2)=N4)cc1
photoluminescence quantum yield (in ClCCl): 0.39

Structure (SMILES): CCCCC1=Cc2c3ccc4cccc5ccc(c6cc(-c7ccc(N(c8ccccc8)c8ccccc8)cc7)n(c26)P1(=O)c1ccccc1)c3c45 (configuration not stated)
photoluminescence quantum yield (in C1CCCCC1): 0.56 | photoluminescence quantum yield (in C1CCOC1): 0.49 | photoluminescence quantum yield (in C1COCCO1): 0.61 | photoluminescence quantum yield (in CC#N): 0.39 | photoluminescence quantum yield (in CC(C)=O): 0.52 | photoluminescence quantum yield (in CO): 0.29 | photoluminescence quantum yield (in Cc1ccccc1): 0.61 | photoluminescence quantum yield (in ClC(Cl)Cl): 0.58 | photoluminescence quantum yield (in ClCCl): 0.62

Structure (SMILES): C(#Cc1cc2ccc3cccc4ccc(c1)c2c34)c1ccccc1
photoluminescence quantum yield (in Cc1ccccc1): 0.44

Structure (SMILES): O=C(O)COc1cccc(OCC(=O)O)c1-c1c2ccc(=[N+]3CCCCC3)cc-2oc2cc(N3CCCCC3)ccc12
photoluminescence quantum yield (in CCO): 0.49 | photoluminescence quantum yield (in O): 0.13

Structure (SMILES): CCOC(=O)c1ccc2c(c1)[nH]c1c3ccc(C(=O)OCC)cc3[nH]c21
photoluminescence quantum yield (in CCCO): 0.57

Structure (SMILES): C[N+]1=C(/C=C/C=C2/N(CCCS(=O)(=O)[O-])c3ccccc3C2(C)C)C(C)(C)c2ccccc21
photoluminescence quantum yield (in CS(C)=O): 0.1

Structure (SMILES): C(=C\N1CCCC1)/c1nc2ccccc2nc1-c1ccccc1
photoluminescence quantum yield (in C1CCCCC1): 0.186 | photoluminescence quantum yield (in C1CCOC1): 0.445 | photoluminescence quantum yield (in CC#N): 0.199 | photoluminescence quantum yield (in CC(C)=O): 0.284 | photoluminescence quantum yield (in CCO): 0.023 | photoluminescence quantum yield (in CO): 0.006 | photoluminescence quantum yield (in CS(C)=O): 0.112 | photoluminescence quantum yield (in Cc1ccccc1): 0.49 | photoluminescence quantum yield (in ClCCl): 0.598

Structure (SMILES): [C-]#[N+]c1ccc(-c2ccc(NC)cc2)cc1
photoluminescence quantum yield (in C1CCCCC1): 0.74 | photoluminescence quantum yield (in C1CCOC1): 0.74 | photoluminescence quantum yield (in C1COCCO1): 0.77 | photoluminescence quantum yield (in CC#N): 0.88 | photoluminescence quantum yield (in CC(C)=O): 0.55 | photoluminescence quantum yield (in CCCCCC): 0.49 | photoluminescence quantum yield (in CCOC(C)=O): 0.63 | photoluminescence quantum yield (in CN(C)C=O): 0.49 | photoluminescence quantum yield (in CO): 0.65 | photoluminescence quantum yield (in CS(C)=O): 0.72 | photoluminescence quantum yield (in Cc1ccccc1): 0.59 | photoluminescence quantum yield (in ClC(Cl)Cl): 0.55 | photoluminescence quantum yield (in ClCCl): 0.85 | photoluminescence quantum yield (in O): 0.0087 | photoluminescence quantum yield (in c1ccncc1): 0.03

Structure (SMILES): COc1ccc(-c2cc(-c3ccc(C)cc3)nc3c(C#N)c(N4CCCC4)nc(N)c23)cc1
photoluminescence quantum yield (in CC#N): 0.06 | photoluminescence quantum yield (in c1ccccc1): 0.084

Structure (SMILES): COc1ccc(C2=C(c3ccc(OC)cc3)C(c3ccccc3)=[N+]3C2=Nc2c(-c4ccc(OC)cc4)c(-c4ccc(OC)cc4)c(-c4ccccc4)n2[B-]3(F)F)cc1
photoluminescence quantum yield (in Cc1ccccc1): 0.01

Structure (SMILES): CCCCC(CC)COc1ccc2nc(-c3ccc(-c4cccs4)s3)sc2c1 (configuration not stated)
photoluminescence quantum yield (in ClCCl): 0.2

Structure (SMILES): CC(C)(C)c1ccc(C2=c3c(c4ccc(C(C)(C)C)cc4c4cc(C(C)(C)C)ccc34)=[N+]3C2=C(c2ccccc2)c2c(-c4ccc(C(C)(C)C)cc4)c4c5ccc(C(C)(C)C)cc5c5cc(C(C)(C)C)ccc5c4n2[B-]3(F)F)cc1
photoluminescence quantum yield (in C1CCCCC1): 0.44 | photoluminescence quantum yield (in C1CCOC1): 0.45 | photoluminescence quantum yield (in CC#N): 0.27 | photoluminescence quantum yield (in Cc1ccccc1): 0.46 | photoluminescence quantum yield (in ClCCl): 0.45

Structure (SMILES): CC1=CC(C)=[N+]2C1=C(c1ccc(C)cc1)c1c(C)cc(/C=C/c3ccc4ccc5cccc6ccc3c4c56)n1[B-]2(F)F
photoluminescence quantum yield (in CC1CCCO1): 0.64

Structure (SMILES): Cc1cc(-c2ccc(-n3c4ccccc4c4ccccc43)cc2)nc(-c2ccc(-c3ccccc3)cc2)n1
photoluminescence quantum yield (in C1CCOC1): 0.62 | photoluminescence quantum yield (in CN(C)C=O): 0.59 | photoluminescence quantum yield (in Cc1ccccc1): 0.52 | photoluminescence quantum yield (in ClC(Cl)Cl): 0.75

Structure (SMILES): CC1(C)c2ccccc2N(c2ccc(-c3ccc(C#N)nc3)cc2)c2ccccc21
photoluminescence quantum yield (in Cc1ccccc1): 0.345 | photoluminescence quantum yield (in N#Cc1ccc2c(c1)c1ccccc1n2-c1cccc(-n2c3ccccc3c3ccccc32)c1): 0.916

Structure (SMILES): C=CCNS(=O)(=O)c1ccc2c(c1)C(=O)/C(=C1\Sc3ccc(S(=O)(=O)NCC=C)cc3C1=O)S2
photoluminescence quantum yield (in CN(C)C=O): 0.197 | photoluminescence quantum yield (in CS(C)=O): 0.006

Structure (SMILES): O=C1O[B-]2(OC1=O)OC(c1ccc3ccccc3c1)=CC(c1ccc3ccccc3c1)=[O+]2
photoluminescence quantum yield (in CC#N): 0.3 | photoluminescence quantum yield (in ClC(Cl)(Cl)Cl): 0.8

Structure (SMILES): CCC1(CC)c2ccccc2-c2ccc(C#Cc3ccc4ccc5cccc6ccc3c4c56)cc21
photoluminescence quantum yield (in Cc1ccccc1): 0.99

Further lines, results first:

photoluminescence quantum yield (in ClC(Cl)Cl): 0.313
Structure (SMILES): COc1ccc(C2=Cc3c4ccccc4cc[n+]3[B-](F)(F)O2)cc1

photoluminescence quantum yield (in C1CCCCC1): 0.31
Structure (SMILES): COc1ccc(-c2ccc(OC)cc2)cc1

photoluminescence quantum yield (in CCO): 0.46
Structure (SMILES): c1ccc(-n2c3ccccc3c3ccccc32)cc1

photoluminescence quantum yield (in C1COCCO1): 0.348
Structure (SMILES): COC(=O)c1ccc(/C=C2\N=C(c3ccc(OC)c(OC)c3)OC2=O)cc1

photoluminescence quantum yield (in ClCCl): 0.15
Structure (SMILES): O=c1c2cccc3cccc(c32)c2nc3c4ccccc4c4ccccc4c3n12

photoluminescence quantum yield (in ClCCl): 0.056
Structure (SMILES): O=Cc1ccc(C2=Cc3ccccc3P2(=O)c2ccccc2)cc1 (configuration not stated)

photoluminescence quantum yield (in C1COCCO1): 0.1 | photoluminescence quantum yield (in CC#N): 0.09 | photoluminescence quantum yield (in CCCCCC): 0.15 | photoluminescence quantum yield (in CCCCCCC): 0.17 | photoluminescence quantum yield (in CCCO): 0.13 | photoluminescence quantum yield (in CCOC(C)=O): 0.08 | photoluminescence quantum yield (in CS(C)=O): 0.15 | photoluminescence quantum yield (in ClC(Cl)Cl): 0.13 | photoluminescence quantum yield (in ClCCl): 0.12
Structure (SMILES): COc1ccc(C#Cc2ccc(C#N)cc2)cc1

photoluminescence quantum yield (in CC#N): 0.24
Structure (SMILES): c1ccc(-c2nc(-c3ccc(-c4cccs4)s3)[nH]c2-c2ccccc2)cc1

photoluminescence quantum yield (in CC#N): 0.41
Structure (SMILES): CCOC(=O)c1c2c3c(ccc(F)c3c3cc4ccccc4cc13)N(C)C2=O

photoluminescence quantum yield (in ClCCl): 0.01
Structure (SMILES): Clc1ccc(/C=C/c2cnc3ccccc3n2)cc1

photoluminescence quantum yield (in ClC(Cl)Cl): 0
Structure (SMILES): Cc1nc2c(ccc3c2sc(/C=C/c2ccc(N(c4ccccc4)c4ccccc4)cc2)[n+]3C)s1

photoluminescence quantum yield (in CC#N): 0.76
Structure (SMILES): Cc1ccc(-c2ccc(/C=C/c3ccc(Cl)cc3)cn2)nc1

photoluminescence quantum yield (in C1COCCO1): 0.34 | photoluminescence quantum yield (in CC#N): 0.31 | photoluminescence quantum yield (in CO): 0.64 | photoluminescence quantum yield (in ClCCl): 0.2 | photoluminescence quantum yield (in O): 0.88
Structure (SMILES): N#Cc1nc2cnc(N)nc2n1Cc1ccccc1

photoluminescence quantum yield (in CC#N): 0.24
Structure (SMILES): COc1ccc2cc(/C=C/c3ccc([N+](=O)[O-])cc3)c(=O)oc2c1

photoluminescence quantum yield (in O): 0.95
Structure (SMILES): O=C([O-])c1ccccc1-c1c2ccc(=O)cc-2oc2cc([O-])ccc12

photoluminescence quantum yield (in C1CCOC1): 0.63
Structure (SMILES): CCCCOc1cc2ccccc2c2c1oc1cc3ccccc3cc12

photoluminescence quantum yield (in C1CCCCC1): 0.0009
Structure (SMILES): C(#Cc1cnc(C#Cc2ccccc2)nc1)c1ccccc1

photoluminescence quantum yield (in C1CCCCC1): 0.14 | photoluminescence quantum yield (in CO): 0.02
Structure (SMILES): Clc1ccc(/C=C/c2nc3ccccc3o2)cc1
